In brackets after ≈: the same amount, converted by molar mass.
Assays:
Format in all cases: cell-based
[1] = test system: Bacillus subtilis ATCC 6633; experiment: Antimicrobial activity (MIC); conditions: ATCC6633
[2] = test system: Staphylococcus aureus FDA 209P; experiment: Antimicrobial activity (MIC); conditions: FDA209P
[3] = test system: Staphylococcus aureus Terajima; experiment: Antimicrobial activity (MIC)
[4] = test system: Staphylococcus aureus Smith; experiment: Antimicrobial activity (MIC)
[5] = test system: Staphylococcus epidermidis ATCC 12228; experiment: Antimicrobial activity (MIC); conditions: ATCC12228
Sarcina lutea ATCC 9341 = experiment: Antimicrobial activity (MIC); conditions: Micrococcus luteus, ATCC9341
[6] = test system: Streptococcus faecalis IFO 12964; experiment: Antimicrobial activity (MIC); conditions: Enterococcus faecalis, IFO12964
[7] = test system: Micrococcus lysodeikticus IFO 3333; experiment: Antimicrobial activity (MIC); conditions: Micrococcus luteus, IFO3333
[8] = test system: Candida albicans NHL 4019; experiment: Antimicrobial activity (MIC); conditions: NHL4019
Candida albicans Yu-1200 = experiment: Antimicrobial activity (MIC); conditions: YU1200
[9] = test system: Saccharomyces cerevisiae ATCC 9763; experiment: Antimicrobial activity (MIC); conditions: ATCC9763
Saccharomyces ruxii 6507 = experiment: Antimicrobial activity (MIC)
[10] = test system: Aspergillus niger ATCC 9642; experiment: Antimicrobial activity (MIC); conditions: ATCC9642
[11] = test system: Penicillium chrysogenum ATCC 6010; experiment: Antimicrobial activity (MIC); conditions: ATCC6010
[12] = test system: Trichophyton mentagrophytes QM 248; experiment: Antimicrobial activity (MIC); conditions: QM248
[13] = test system: Trichophyton mentagrophytes IFO 5812; experiment: Antimicrobial activity (MIC); conditions: IFO5812
[14] = test system: Trichophyton tonsurans IFO 5928; experiment: Antimicrobial activity (MIC); conditions: IFO5928
[15] = test system: Trichophyton rubrum NHL J; experiment: Antimicrobial activity (MIC)
[16] = test system: Microsporum gypseum IFO 8231; experiment: Antimicrobial activity (MIC); conditions: Nannizzia gypsea, IFO8231
[17] = test system: Microsporum audounii IFO 6074; experiment: Antimicrobial activity (MIC); conditions: IFO6074
[18] = test system: Microsporum cookei IFO 8303; experiment: Antimicrobial activity (MIC); conditions: Paraphyton cookei, IFO8303
[19] = test system: Epidermophyton floccosum IFO 9045; experiment: Antimicrobial activity (MIC); conditions: IFO9045
[20] = test system: Aspergillus oryzae IMF 4014; experiment: Antimicrobial activity (MIC); conditions: IMF4014
[21] = test system: Cladosporium fulvum IAM 5006; experiment: Antimicrobial activity (MIC); conditions: Fulvia fulva, IAM5006
[22] = test system: Fusarium moniliforme IAM 5062; experiment: Antimicrobial activity (MIC); conditions: Fusarium verticillioides, IAM5062
[23] = test system: Helminthosporium sesamum IAM 5012; experiment: Antimicrobial activity (MIC); conditions: IAM5012
[24] = test system: Pyricularia oryzae IAM 5016; experiment: microbe, parasite or virus in culture; conditions: IAM5016
[25] = test system: Debaryomyces kloeckeri IFO 0015; experiment: Antimicrobial activity (MIC); conditions: IFO0015
[26] = test system: Gibberella fujikuroi IAM 8046; experiment: Antimicrobial activity (MIC); conditions: Fusarium fujikuroi, IAM8046

Work on `CCCCCCCCCOc1ccccc1C(C)(O)Cn1ccnc1` (stereo not shown) [Compound 59] yielded an MIC [1] of 6.25 µg/mL (≈ 18.1 µM), an MIC [2] of 6.25 µg/mL (≈ 18.1 µM) and an MIC [3] of 6.25 µg/mL (≈ 18.1 µM). The MIC [4] was 6.25 µg/mL (≈ 18.1 µM), the MIC [5] was 1.56 µg/mL (≈ 4.53 µM) and the MIC (Sarcina lutea ATCC 9341) was 0.05 µg/mL (≈ 0.145 µM). For the same compound, the MIC [6] was 6.25 µg/mL (≈ 18.1 µM), the MIC [7] was 1.56 µg/mL (≈ 4.53 µM) and the MIC [8] was 12.5 µg/mL (≈ 36.3 µM). The MIC (Candida albicans Yu-1200) was 25 µg/mL (≈ 72.6 µM), the MIC [9] was 12.5 µg/mL (≈ 36.3 µM) and the MIC (Saccharomyces ruxii 6507) was 0.78 µg/mL (≈ 2.26 µM). For the same compound, the MIC [10] was 0.1 µg/mL (≈ 0.29 µM), the MIC [11] was 6.25 µg/mL (≈ 18.1 µM) and the MIC [12] was less than 0.006 µg/mL. For the same compound, the MIC [13] was less than 0.006 µg/mL, the MIC [14] was less than 0.006 µg/mL and the MIC [15] was less than 0.006 µg/mL. For the same compound, the MIC [16] was less than 0.006 µg/mL, the MIC [17] was less than 0.006 µg/mL and the MIC [18] was 0.1 µg/mL (≈ 0.29 µM). The MIC [19] was 0.2 µg/mL (≈ 0.581 µM), the MIC [20] was less than 0.006 µg/mL and the MIC [21] was 1.56 µg/mL (≈ 4.53 µM). It also gave an MIC [22] of 6.25 µg/mL (≈ 18.1 µM), an MIC [23] of less than 0.006 µg/mL and an MIC [24] of less than 0.006 µg/mL. The MIC [25] was 12.5 µg/mL (≈ 36.3 µM) and the MIC [26] was 1.56 µg/mL (≈ 4.53 µM).
Compound `CCCCCCCCOc1ccccc1C(C)(O)Cn1ccnc1` (stereo not shown) [Compound 8] has an MIC [1] of 3.12 µg/mL (≈ 9.44 µM), an MIC [2] of 3.12 µg/mL (≈ 9.44 µM) and an MIC [3] of 3.12 µg/mL (≈ 9.44 µM). It also gave an MIC [4] of 3.12 µg/mL (≈ 9.44 µM), an MIC [5] of 0.39 µg/mL (≈ 1.18 µM) and an MIC (Sarcina lutea ATCC 9341) of 0.2 µg/mL (≈ 0.605 µM). For the same compound, the MIC [6] was 6.25 µg/mL (≈ 18.9 µM), the MIC [7] was 1.56 µg/mL (≈ 4.72 µM) and the MIC [8] was 12.5 µg/mL (≈ 37.8 µM). For the same compound, the MIC (Candida albicans Yu-1200) was 12.5 µg/mL (≈ 37.8 µM), the MIC [9] was 0.025 µg/mL (≈ 0.0756 µM) and the MIC (Saccharomyces ruxii 6507) was 0.39 µg/mL (≈ 1.18 µM). For the same compound, the MIC [10] was 0.025 µg/mL (≈ 0.0756 µM), the MIC [11] was 3.12 µg/mL (≈ 9.44 µM) and the MIC [12] was 0.006 µg/mL (≈ 0.0182 µM). The MIC [13] was less than 0.006 µg/mL, the MIC [14] was less than 0.006 µg/mL and the MIC [15] was less than 0.006 µg/mL. The MIC [16] was 0.006 µg/mL (≈ 0.0182 µM), the MIC [17] was less than 0.006 µg/mL and the MIC [18] was 0.012 µg/mL (≈ 0.0363 µM). For the same compound, the MIC [19] was 0.1 µg/mL (≈ 0.303 µM), the MIC [20] was less than 0.006 µg/mL and the MIC [21] was 0.78 µg/mL (≈ 2.36 µM). The MIC [22] was 3.12 µg/mL (≈ 9.44 µM), the MIC [23] was less than 0.006 µg/mL and the MIC [24] was less than 0.006 µg/mL. For the same compound, the MIC [25] was 3.12 µg/mL (≈ 9.44 µM) and the MIC [26] was 0.78 µg/mL (≈ 2.36 µM).

From patent publication US5164513A, “Imidazole derivative” (SS Pharmaceutical Co., Ltd., priority 1987, dated 1992)
